The source of these data is patent US20220389077A1, “ALLOGENEIC CELL COMPOSITIONS AND METHODS OF USE” (Poseida Therapeutics, Inc., priority 2018, published 2022).

For data set [1] the following is noted: cited from earlier work.
For data set [2], the system named is cells. Briefly: AP1903 amount needed in vitro for effective signaling of cells. It counts as cell-based. The note with it: 1600 Da MW. The procedure:
The fixed dose of AP1903 for injection used, for example, may be 0.4 mg/kg intravenously infused over 2 hours. The amount of AP1903 needed in vitro for effective signaling of cells is 10-100 nM (1600 Da MW). This equates to 16-160 μg/L or ^˜0.016-1.6 μg/kg (1.6-160 μg/kg). Doses up to 1 mg/kg were well-tolerated in the Phase I study of AP1903 described above. Therefore, 0.4 mg/kg may be a safe and effective dose of AP1903 for this Phase I study in combination with the therapeutic cells.

Data set [3] has as its system cells. Conditions: cited from earlier work.
The target in another data set is T1, human CD58 (human, UniProt P19256 29-250).
T1 construct: whole, on cells
T1 sequence (looked up): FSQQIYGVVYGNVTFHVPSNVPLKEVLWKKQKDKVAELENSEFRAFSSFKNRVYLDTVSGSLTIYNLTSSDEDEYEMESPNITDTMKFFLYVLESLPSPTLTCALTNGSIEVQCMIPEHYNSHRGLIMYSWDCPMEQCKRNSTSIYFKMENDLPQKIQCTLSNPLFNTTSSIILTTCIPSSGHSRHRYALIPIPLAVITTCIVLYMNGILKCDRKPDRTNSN
Briefly: inferred from T-cell degranulation (CD107a) against K562/Rat2 cells overexpressing human CD58. As for the experimental part:
FIG. 23D is a series of flow cytometry plots showing the expression of CD48, CD58 or CD59 on K562 and Rat2 cells. To confirm possible ligands for the CSR WT CD2z molecule, a panel of known and suspected ligands including human CD48, CD58, and CD59 were tested. Degranulation of engineered T cells was evaluated against the cell lines K562 and Rat2 that were made to overexpress the target ligands and confirmed for expression by FACS staining. Red histograms are unstained cells and blue histograms are cells that were electroporated/lipofected with mRNA and then stained for expression of the respective marker by FACS.
FIG. 23E is a bar graph showing that CSR CD2z recognizes human CD58, but not CD48 or CD59. To confirm possible ligands for the CSR WT CD2z molecule, a panel of known and suspected ligands including human CD48, CD58, and CD59 were tested. Degranulation of engineered T cells was evaluated against the cell lines K562 and Rat2 that were made to overexpress the target ligands and confirmed for expression by FACS staining. Cells were electroporated/lipofected with mRNA and then stained for expression of the respective marker by FACS. […] T cell degranulation is a surrogate of T cell killing that can be measured by FACS staining for intracellular CD107a expression following coculture with target cell lines expressing target antigen. […]

Where two headings read alike, the source gives them in different places.

Take `CC[C@H](C(=O)N1CCCC[C@H]1C(=O)O[C@H](CCc1ccc(OC)c(OC)c1)c1cccc(OCC(=O)NCCNC(=O)COc2cccc([C@@H](CCc3ccc(OC)c(OC)c3)OC(=O)[C@@H]3CCCCN3C(=O)[C@@H](CC)c3cc(OC)c(OC)c(OC)c3)c2)c1)c1cc(OC)c(OC)c(OC)c1` (relative stereo) [AP1903, 2-Piperidinecarboxylic acid, 1-[(2S)-1-oxo-2-(3,4,5-trimethoxyphenyl)butyl]-, 1,2-ethanediylbis[imino(2-oxo-2,1-ethanediyl)oxy-3,1-phenylene[(1R)-3-(3,4-dimethoxyphenyl)propylidene]]ester, [2S-[1(R*),2R*[S*[S*[1(R*),2R*]]]]]-(9Cl)]: in data set [1] (0.01, 0.05, 0.1, 0.5 and 1.0 mg/kg), the “plasma levels versus dose” value is listed as “directly proportional to dose”. The “mean Cmax” value in data set [1] (0.01-1.0 mg/kg dose range, IV over 2 hours) is 10 to 1275 ng/mL. Moreover, the “plasma level as % of maximal concentration” value in data set [1] (0.5 hours post-dose) was “approximately 18%”; in data set [1] (2 hours post-dose), about 7%; in data set [1] (10 hours post-dose), about 1%. In data set [1] (Phase I study), the well-tolerated doses result is listed as “up to 1 mg/kg”. Moreover, the “amount needed for effective signaling, converted” value in the data set with cells [2] fell in the range of 16 to 160 µg/L. Besides, the “amount needed in vitro for effective signaling of cells” value in the data set with cells [3] was 10 to 100 nM.

B1: CSR CD2z (chimeric stimulatory receptor: CD2 extracellular, transmembrane and cytoplasmic domains fused to the CD3z intracellular domain) (receptor)
chain: KEITNALETWGALGQDINLDIPSFQMSDDIDDIKWEKTSDKKKIAQFRKEKETFKEKDTYKLFKNGTLKIKHLKTDDQDIYKVSIYDTKGKNVLEKIFDLKIQERVSKPKISWTCINTTLTCEVMNGTDPELNLYQDGKHLKLSQRVITHKWTTSLSAKFKCTAGNKVSKESSVEPVSCPEKGLDIYLIIGICGGGSLLMVFVALLVFYITKRKKQRSRRNDEELETRAHRVATEERGRKPHQIPASTPQNPATSQHPPPPPGHRSQAPSHRPPPPGHRVQHQPQKRPPAPSGTQVHQQKGPPLPRPRVQPKPPHGAAENSLSPSSNRVKFSRSADAPAYKQGQNQLYNELNLGRREEYDVLDKRRGRDPEMGGKPRRKNPQEGLYNELQKDKMAEAYSEIGMKGERRRGKGHDGLYQGLSTATKDTYDALHMQALPPR
notes: Expressed from mRNA on the surface of primary human T cells (degranulation assays) or K562 cells (staining); also called CSR WT CD2z; WT CD2z CSR
As to B1, the binding result in the data set with human CD58 is reported as “binds”.
